From PMC6423129, “Activity and structural analysis of GRL-117C: a novel small molecule CCR5 inhibitor active against R5-tropic HIV-1s” (Scientific Reports, 2019)
Where a name gives a salt, the structure may show the parent alone. Read-outs that look alike come from different tables or passages of the source.

Tests used:
R5-HIV-1Ba-L = assay: MAGI assay using MAGI/CCR5 cells and R5-HIV-1Ba-L; type: cell-based; settings: Ba-L (MAGI)
Protocol: (§1) MAGI-CCR5 cells[18] were maintained in DMEM supplemented with 10% fetal calf serum (FCS: Gemini Bio-Products, West Sacramento, CA), 200 μg/ml G418, 100 μg/ml hygromycin B, and 100 μg/ml zeomycin. The Chinese hamster ovary (CHO) cells expressing CCR5[19] were maintained in Ham’s F-12 medium (GIBCO-BRL, Rockville, MD) supplemented with 10% FCS, 50 U/ml penicillin, and 50 μg/ml streptomycin in the presence of 5 μg/ml blasticidin S hydrochloride. TZM-bl cells were obtained from the NIH AIDS Reagent Program, and were cultured in DMEM with 10% FCS. Peripheral blood mononuclear cells (PBMCs) were isolated from buffy coats of HIV-1 seronegative individuals, and were activated with 10 μg/ml phytohemagglutinin (PHA) prior to use[16]. A laboratory wild-type R5-HIV-1 strain (HIV-1Ba-L)[37] was employed for drug susceptibility assays. AD101 (experimental CCR5 inhibitor) and VVC-resistant HIV clones[7],[8] were provided by Dr. John P. Moore of Cornell University for this study. The clones were propagated with activated PBMCs, and were used for the assays. A clinical HIV-1 strain, HIV-1KP-5pc, and an MVC-resistant isolate, HIV-1KP-5mvcR, were prepared and used for antiviral assays, as previously described[10],[38]. The following reagents (plasmids) for T/F HIV-1 viruses[22],[24] were obtained through the NIH AIDS Reagent Program, Division of AIDS, NIAID, NIH: pCH040.c/2625 (cat# 11740), pCH106.c/2633 (cat# 11743), pTHRO.c/2626 (cat# 11745), and pCH058.c/2960 (cat# 11856), from Dr. John Kappes and Dr. Christina Ochsenbauer.
(§2) Antiviral assays using PHA-PBMCs (p24 assay) were conducted as previously reported[16],[38]. In brief, PHA-PBMCs (1 × 10^6/ml) were exposed to 50 TCID50 of HIV-1Ba-L or drug-resistant HIV-1 infectious clones in the presence or absence of various concentrations of drugs; 10-fold serial dilutions were performed in 96-well microculture plates. The amount of p24 antigens produced by the cells was determined on day 7 in the culture via a commercially available ELISA kit (PerkinElmer). The p24 production level in drug-free control cell cultures was used as the reference. […] Antiviral assays using MAGI-CCR5 cells (MAGI assay) were conducted as previously reported[16],[39]. Single-round virus infection assays using TZM-bl cells infected with R5-HIV-1s (HIV-1YU2, HIV-1KP-5pc, and HIV-1KP-5mvcR)[10] were also conducted as previously described.

[1] = tested on: CC101.19 cl.7 (AD101 resistant); assay: microbe, parasite or virus in culture; type: cell-based, HIV-1; settings: for fold increases of IC50s compared to wild type (CC1/85 cl.7): CC101.19 cl.7 (AD101 resistant) vs CC1/85 cl.7
Protocol: as §1, §2

[2] = tested on: D1/85.16 cl.23 (VVC resistant); assay: microbe, parasite or virus in culture; type: cell-based, HIV-1; settings: for fold increases of IC50s compared to wild type (CC1/85 cl.7): D1/85.16 cl.23 (VVC resistant) vs CC1/85 cl.7
Protocol: as §1, §2

R5-HIV-1BaL = assay: p24 assay using PBMCs and R5-HIV-1BaL; type: cell-based; settings: Ba-L (PBMCs), day 7
Protocol: as §1, §2

CC1/85 cl.7 = assay: Anti-HIV-1 assay, drug-naive clinical strain CC1/85 cl.7; type: cell-based
Protocol: as §1, §2

CC1/85 cl.6 = assay: Anti-HIV-1 assay, drug-naive clinical strain CC1/85 cl.6; type: cell-based; settings: CC1/85 cl.6, drug naive R5-HIV-1 clinical strain, read-out: IC50
Protocol: as §1, §2

HIV-1KP-5pc = assay: TZM-bl single-round infection assay, HIV-1KP-5pc; type: cell-based; settings: for IC50: KP-5pc, drug-sensitive clinical strain, TZM-bl assay, mean ± SD
Protocol: as §1, §2

HIV-1KP-5mvcR = assay: TZM-bl single-round infection assay, MVC-resistant HIV-1KP-5mvcR; type: cell-based
Protocol: as §1, §2

HIV-1YU2 = assay: TZM-bl single-round infection assay, HIV-1YU2; type: cell-based; settings: Human immunodeficiency virus 1, YU2, drug-sensitive, mean ± SD
Protocol: as §1, §2

pCH0.6.c/2633 = assay: MAGI assay, T/F HIV-1 clone pCH0.6.c/2633; type: cell-based; settings: Human immunodeficiency virus 1, MAGI
Description: (§3) We also examined the activity of GRL-compounds against Transmitter/founder (T/F) HIV-1 viruses. T/F viruses are involved in the initial infection. It is considered that T/F viruses virtually always use CCR5 rather than CXCR4 and infect T cells but not macrophages because […] of CD4 is needed to mediate virus entry for the initial transmission[20]–[24]. […] We obtained four HIV-1 T/F infectious clones. We determined the antiviral activity of GRL-117C, GRL-10007C and GRL-10018C on these HIV-1 clones using MAGI assay.
as §1, with “A clinical HIV-1 strain, HIV-1KP-5pc, and an MVC-resistant isolate, HIV-1KP-5mvcR, were prepared and used for antiviral assays, as previously described[10],[38].” left out
as §2

CCR5 [3] = molecular target: T1, CCR5 (Homo sapiens, UniProt P51681); assay: Inhibition of 125I-MIP-1β binding to CCR5 (CCR5+ CHO cells)
T1 construct: expressed in transfected cells; host or cells: Chinese hamster ovary (CHO) cells expressing CCR5
T1 sequence (P51681 whole entry): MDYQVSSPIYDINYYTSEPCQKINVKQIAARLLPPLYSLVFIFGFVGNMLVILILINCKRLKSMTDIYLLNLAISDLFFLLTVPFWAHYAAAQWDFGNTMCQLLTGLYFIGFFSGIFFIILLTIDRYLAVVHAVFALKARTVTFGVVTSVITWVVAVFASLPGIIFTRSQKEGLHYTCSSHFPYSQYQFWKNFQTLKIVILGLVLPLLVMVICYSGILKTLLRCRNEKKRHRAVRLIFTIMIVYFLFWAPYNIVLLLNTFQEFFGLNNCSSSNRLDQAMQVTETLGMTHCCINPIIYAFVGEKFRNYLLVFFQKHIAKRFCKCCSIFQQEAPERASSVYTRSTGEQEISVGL
Protocol: (§4) In order to determine whether GRL derivatives block the binding of CC-chemokines to CCR5, we conducted a CC-chemokine binding inhibition assay using ^125I-labeled CC-chemokines (^125I-RANTES, ^125I-MIP-1α, and ^125I-MIP-1β) and CCR5 expressing cells.
(§5) CCR5^+ CHO cells were incubated with (A) ^125I-MIP-1α, (B) ^125I-MIP-1β, and (C) ^125I-RANTES (200 ng/ml) in the presence or absence of varying concentrations of CCR5 inhibitors. Data are shown as means ± s.d. of three independent experiments.
(§6) The inhibition of the binding of ^125I-labeled CC-chemokines ([^125I] RANTES, [^125I] MIP-1α, or [^125I] MIP-1β) to CCR5 by various CCR5 inhibitors was measured as previously described. Calcium flux inhibition assays were also performed with CCR5 inhibitors, and were carried out with the Fluo-4 Direct^TM calcium reagent (Invitrogen); assays were conducted as previously described with minor modifications. In brief, CHO-CCR5 cells (5 × 10^5 cells) were exposed to Fluo-4 Direct^TM calcium reagent for 60 min at 37 °C in RPMI containing 5% FCS. Cells were then incubated with the test compound for 30 min at varying concentrations. Subsequently, cells were exposed to either MIP-1α, MIP-1β, or RANTES at 200 ng/ml. Relative increases in cytosolic Ca^2+ levels after chemokine exposure were determined with flow cytometry (FACSCalibur, BD Biosciences), and IC50 values of cytosolic Ca^2+ mobilization (Ca^2+ flux) were compared with the Ca^2+ flux level in drug-free control samples.

pTHRO.c/2626 = assay: MAGI assay, T/F HIV-1 clone pTHRO.c/2626; type: cell-based; settings: Human immunodeficiency virus 1, MAGI
Description: as §3
as §1, with “A clinical HIV-1 strain, HIV-1KP-5pc, and an MVC-resistant isolate, HIV-1KP-5mvcR, were prepared and used for antiviral assays, as previously described[10],[38].” left out
as §2

CCR5 [4] = molecular target: T1, CCR5; assay: Inhibition of 125I-MIP-1α binding to CCR5 (CCR5+ CHO cells)
Protocol: as §4, §5, §6

CCR5 [5] = molecular target: T1, CCR5; assay: Inhibition of 125I-RANTES binding to CCR5 (CCR5+ CHO cells)
Protocol: as §4, §5, §6

pCH058.c/2960 = assay: MAGI assay, T/F HIV-1 clone pCH058.c/2960; type: cell-based; settings: Human immunodeficiency virus 1, MAGI
Description: as §3
as §1, with “A clinical HIV-1 strain, HIV-1KP-5pc, and an MVC-resistant isolate, HIV-1KP-5mvcR, were prepared and used for antiviral assays, as previously described[10],[38].” left out
as §2

pCH040.c/2625 = assay: MAGI assay, T/F HIV-1 clone pCH040.c/2625; type: cell-based; settings: Human immunodeficiency virus 1, MAGI
Description: as §3
as §1, with “A clinical HIV-1 strain, HIV-1KP-5pc, and an MVC-resistant isolate, HIV-1KP-5mvcR, were prepared and used for antiviral assays, as previously described[10],[38].” left out
as §2

[6] = Human immunodeficiency virus 1, BAL
[7] = Human immunodeficiency virus 1, CC101.19 cl.7 (AD101 resistant)
[8] = Human immunodeficiency virus 1, D1/85.16 cl.23 (VVC resistant)
[9] = Human immunodeficiency virus 1, BAL, PBMC, 168 h
[10] = Human immunodeficiency virus 1, TZM-bl

Structure (SMILES)	fold increases of IC50s compared to wild type (CC1/85 cl.7) [1]	fold increases of IC50s compared to wild type (CC1/85 cl.7) [2]	IC50 (R5-HIV-1Ba-L; [6]) [nM]	IC90 (R5-HIV-1Ba-L; [6]) [nM]	IC90 ([1]; Human immunodeficiency virus 1) [nM]	IC50 [1, 7] [nM]	IC90 ([2]; Human immunodeficiency virus 1) [nM]	IC50 [2, 8] [nM]	IC50 (R5-HIV-1BaL; [9]) [nM]	IC90 (R5-HIV-1BaL; [9]) [nM]	IC50 (CC1/85 cl.7; Human immunodeficiency virus 1) [nM]	IC90 (CC1/85 cl.7; Human immunodeficiency virus 1) [nM]	IC50 (CC1/85 cl.6; Human immunodeficiency virus 1) [nM]	IC50 (pCH0.6.c/2633) [nM]	IC50 (pTHRO.c/2626) [nM]	IC50 (pCH058.c/2960) [nM]	IC50 (pCH040.c/2625) [nM]	other results
Cc1ccc(-c2ccc3c(c2)C=C(C(=O)Nc2ccc(C[N+](C)(C)C4CCOCC4)cc2)CCC3)cc1.[Cl-] [TAK-779]	(×14) fold	(×5.9) fold	–	–	–	–	–	–	–	–	–	–	–	–	–	–	–	IC50 (R5-HIV-1Ba-L): 15.7 nM; IC90 (R5-HIV-1Ba-L): 88.1 nM; IC50 ([1]; CC101.19 cl.7 (AD101 resistant), read-out: IC50): 400 nM; IC90 ([1]; CC101.19 cl.7 (AD101 resistant), read-out: IC90): > 1000 nM; IC50 ([2]; D1/85.16 cl.23 (VVC resistant), read-out: IC50): 166 nM; IC90 ([2]; D1/85.16 cl.23 (VVC resistant), read-out: IC90): 747 nM; IC50 (R5-HIV-1BaL): 31.6 nM; IC90 (R5-HIV-1BaL): 187 nM; IC50 (CC1/85 cl.7; CC1/85 cl.7, drug naive R5-HIV-1 clinical strain, read-out: IC50): 28.3 nM; IC90 (CC1/85 cl.7; CC1/85 cl.7, drug naive R5-HIV-1 clinical strain, read-out: IC90): 101 nM; IC50 (CC1/85 cl.6): 22.7 nM
CCO/N=C(\c1ccc(Br)cc1)C1CCN(C2(C)CCN(C(=O)c3c(C)cc[n+]([O-])c3C)CC2)CC1 [SCH-C]	–	–	4.8	15.9	> 1000	> 1000	> 1000	412	13.9	97.2	6.1	67.7	5.2	–	–	–	–	–
CCCCOCCOc1ccc(-c2ccc3c(c2)/C=C(/C(=O)Nc2ccc([S@@+]([O-])Cc4cncn4CCC)cc2)CCCN3CC(C)C)cc1 [CVC, cenicriviroc]	–	–	–	–	–	–	–	–	–	–	–	–	–	–	–	–	–	IC90 (HIV-1KP-5pc; [10]): 105 nM; IC50 (HIV-1KP-5pc; [10]): 4.1 nM; IC50 (HIV-1KP-5pc): 4.9 ± 2.2 nM; IC50 (HIV-1KP-5mvcR; [10]): 260 ± 352 nM; IC90 (HIV-1KP-5mvcR; [10]): > 300 nM; fold change of IC50 values between HIV-1KP-5pc (wild type) and HIV-1KP-5mvcR (HIV-1KP-5mvcR; KP-5mvcR vs KP-5pc / wild type): 63 fold; IC50 (HIV-1YU2): 1.1 ± 0.7 nM; IC90 (HIV-1YU2): 6.2 nM
C=CCN(C(=O)OCC1COC2OCCC12)C1CC2CCC(C1)N2CCC(C)(CN(C)S(=O)(=O)c1ccccc1)c1ccccc1 (stereo not shown) [GRL-10018C]	(×11) fold	(×12.5) fold	2.9	27.5	553	52.5	642	61.3	18.7	155	4.9	34.9	–	8.8 ± 4.2	3.9 ± 1.1	8 ± 2.3	7.2 ± 1.4	EC50 (CCR5 [3]): 0.4 nM; EC50 (CCR5 [4]): 0.3 nM; EC50 (CCR5 [5]): 17 nM; activity against MVC-resistant HIV-1 (HIV-1KP-5mvcR) (HIV-1KP-5mvcR; in words, data not shown): failed to demonstrate activity
CCCCN1C(=O)[C@@H]([C@H](O)C2CCCCC2)NC(=O)C12CCN(Cc1ccc(Oc3ccc(C(=O)O)cc3)cc1)CC2 [APL, 4-[4-[(3 R)-1-butyl-3-[(1 R)cyclohexylhydroxymethyl]-2,5-dioxo-1,4,9-triazaspiro [5.5]undec-9 ylmethyl]phenoxy] benzoic acid hydrochloride]	–	–	0.2	4.9	200	16.3	98.6	8.6	2.6	13.4	1.8	11.3	1.5	1.9 ± 0.2	0.9 ± 0.1	1.7 ± 0.2	0.7 ± 0.2	–
